Laboratory results taken from US20030060493A1, “Repinotan kit” (priority 2000, published 2003).

Tested on: stroke or craniocerebral trauma
Assay: Clinical studies in healthy subjects and patients after stroke or craniocerebral trauma
Format: in vivo, human

## O=C1c2ccccc2S(=O)(=O)N1CCCCNCC1CCc2ccccc2O1 (stereo in doubt) [repinotan, 2-[4-({[(2R)-chroman-2-yl]methyl}amino)butyl]-1,2-benzisothiazol-3(2H)-one 1,1-dioxide]
After 3 and 6 months respectively depending on indication
  neurological and functional deficits: possible to improve the neurological and functional deficits
Healthy subjects and patients after a stroke or craniocerebral trauma
  tolerability: good tolerability
Patients who reached blood plasma concentrations of about 5-20 μg/l
  result of treatment versus placebo: markedly better
